Experimental data published in patent US9394570B2, “Marker for colon cancer and method for detecting colon cancer” (The Chinese University of Hong Kong, priority 2010, dated 2016).
“Also recorded” adds a separate entry of the source.

System: TBX5 expression in methylated colon cancer cell lines
Experiment: Demethylation with 5-Aza, TBX5 mRNA expression by RT-PCR
Type: cell-based, human
Settings: 2 μM 5-Aza for 5 days; 4 methylated cell lines with silenced or downregulated TBX5
Description: Total RNA was extracted from cell pellets and tissues using TRIzol Reagent according to the manufacturer's instruction (Molecular Research Center, Inc., Cincinnati, Ohio). cDNA was synthesized from 2 μg total RNA using Transcriptor Reverse Transcriptase (Roche Applied Sciences, Indianapolis, Ind.). For semi-quantitative RT-PCR, a 151 bp fragment of the TBX5 gene was amplified for 36 cycles using AmpliTaq Gold DNA polymerase (Applied Biosystems, Foster City, Calif.) as previously reported (Yu et al, Gastro), with β-actin as internal control. The primer sequences of TBX5 are: forward 5′-[…]-3′ (SEQ ID NO:2) and reverse 5′-[…]-3′ (SEQ ID NO:3). Real-time PCR was performed using SYBR Green master mixture on HT7900 system according to the manufactures' instructions (Applied Biosystems).
Cells were seeded at a density of 1×10^6 cells/mL. After 24 hours, cells were treated with 2 μM of the DNA demethylating agent 5-Aza (Sigma-Aldrich, St Louis, Mo.) for 5 days. 5-Aza was replenished every day. Controlled cells were treated with an equivalent concentration of vehicle (DMSO). Cells were then harvested for DNA and RNA extractions.

Nc1ncn([C@H]2C[C@H](O)[C@@H](CO)O2)c(=O)n1 [5-Aza, 5-Aza-2′-deoxycytidine]
TBX5 mRNA expression after demethylation treatment: restoration of TBX5 expression in all cell lines examined; also recorded: restored
